In ChEMBL document CHEMBL1201862, “PubChem BioAssay data set” (2004):
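Briefly, cells in 96-well plates were exposed to five compound concentrations for 48 h, and endpoints were estimated by linear interpolation. Abbreviation: GI50, concentration required for 50% inhibition of growth.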 Calls of active or inactive are those of the source. Cut-off read from the data, not from the text of the source: active = GI50 up to about 1.1 µM and inactive = higher.

Key:
Experiment in all cases: NCI-60 cell line screen, 48 h
T47D = test system: T47D
MOLT-4 = test system: MOLT-4
OVCAR-8 = test system: OVCAR-8
DU-145 = test system: DU-145
786-0 = test system: 786-0
EKVX = test system: EKVX
IGROV-1 = test system: IGROV-1
RPMI-8226 = test system: RPMI-8226
OVCAR-5 = test system: OVCAR-5
MCF7 = test system: MCF7
SK-MEL-5 = test system: SK-MEL-5
UACC-257 = test system: UACC-257
M14 = test system: M14
SR = test system: SR
SF-268 = test system: SF-268
MDA-MB-231 = test system: MDA-MB-231
ACHN = test system: ACHN
HCC 2998 = test system: HCC 2998
NCI/ADR-RES = test system: NCI/ADR-RES
UACC-62 = test system: UACC-62
SF-539 = test system: SF-539
SK-MEL-28 = test system: SK-MEL-28
SNB-19 = test system: SNB-19
UO-31 = test system: UO-31
HL-60 = test system: HL-60
Hs-578T = test system: Hs-578T
CCRF-CEM = test system: CCRF-CEM
MDA-MB-435 = test system: MDA-MB-435
SW-620 = test system: SW-620
CAKI-1 = test system: CAKI-1
U-251 = test system: U-251
HCT-116 = test system: HCT-116
OVCAR-4 = test system: OVCAR-4
TK-10 = test system: TK-10
NCI-H460 = test system: NCI-H460
NCI-H226 = test system: NCI-H226
RXF 393 = test system: RXF 393
MDA-N = test system: MDA-N
COLO 205 = test system: COLO 205
HCT-15 = test system: HCT-15
HT-29 = test system: HT-29
SK-OV-3 = test system: SK-OV-3
SN12C = test system: SN12C
HOP-62 = test system: HOP-62
SNB-75 = test system: SNB-75
PC-3 = test system: PC-3
K562 = test system: K562
A549 = test system: A549
SK-MEL-2 = test system: SK-MEL-2
Malme-3M = test system: Malme-3M
KM12 = test system: KM12
NCI-H522 = test system: NCI-H522
SF-295 = test system: SF-295
OVCAR-3 = test system: OVCAR-3
LOX IMVI = test system: LOX IMVI
NCI-H23 = test system: NCI-H23
HOP-92 = test system: HOP-92

For `Cn1c2ccccc2c(=O)c2c(O)cc3c(c21)C1OCC(C)(O)C1O3` (centres undefined), the GI50 (T47D) was 42.7 µM (inactive), the GI50 (MOLT-4) was 28.2 µM (inactive) and the GI50 (OVCAR-8) was 34 µM (inactive). The GI50 (DU-145) was 29.2 µM (inactive), the GI50 (786-0) was 39.2 µM (inactive) and the GI50 (EKVX) was 7.48 µM (inactive). The GI50 (IGROV-1) was 25.3 µM (inactive), the GI50 (RPMI-8226) was 85.7 µM (inactive) and the GI50 (OVCAR-5) was 19.5 µM (inactive). For the same compound, the GI50 (MCF7) was 51.5 µM (inactive), the GI50 (SK-MEL-5) was 50.2 µM (inactive) and the GI50 (UACC-257) was > 100 µM (inactive). The GI50 (M14) was > 100 µM (inactive), the GI50 (SR) was 46.7 µM (inactive) and the GI50 (SF-268) was 26.6 µM (inactive). The GI50 (MDA-MB-231) was > 100 µM (inactive), the GI50 (ACHN) was 67.8 µM (inactive) and the GI50 (HCC 2998) was > 100 µM (inactive). The GI50 (NCI/ADR-RES) was 42.9 µM (inactive), the GI50 (UACC-62) was > 10 µM (inactive) and the GI50 (SF-539) was 21.6 µM (inactive). The GI50 (SK-MEL-28) was 83.9 µM (inactive), the GI50 (SNB-19) was 26.6 µM (inactive) and the GI50 (UO-31) was 5.4 µM (inactive). The GI50 (HL-60) was 81.5 µM (inactive), the GI50 (Hs-578T) was 6.47 µM (inactive) and the GI50 (CCRF-CEM) was 23.8 µM (inactive). For the same compound, the GI50 (MDA-MB-435) was > 100 µM (inactive), the GI50 (SW-620) was 80 µM (inactive) and the GI50 (CAKI-1) was 30.7 µM (inactive). For the same compound, the GI50 (U-251) was 21.4 µM (inactive), the GI50 (HCT-116) was 37.8 µM (inactive) and the GI50 (OVCAR-4) was > 100 µM (inactive). The GI50 (TK-10) was 82 µM (inactive), the GI50 (NCI-H460) was > 10 µM (inactive) and the GI50 (NCI-H226) was 10.5 µM (inactive). For the same compound, the GI50 (RXF 393) was 22.5 µM (inactive), the GI50 (MDA-N) was > 100 µM (inactive) and the GI50 (COLO 205) was 51.1 µM (inactive). For the same compound, the GI50 (HCT-15) was 53.3 µM, the GI50 (HT-29) was 31.8 µM (inactive) and the GI50 (SK-OV-3) was 37.2 µM (inactive). The GI50 (SN12C) was 58.2 µM (inactive), the GI50 (HOP-62) was 23.6 µM (inactive) and the GI50 (SNB-75) was 22.9 µM (inactive). For the same compound, the GI50 (PC-3) was 44.7 µM (inactive), the GI50 (K562) was 53.3 µM (inactive) and the GI50 (A549) was 61.8 µM (inactive). The GI50 (SK-MEL-2) was 28.3 µM (inactive).

With `C=CC1(c2ccc(Cl)c(Cl)c2)OCCO1` the GI50 (T47D) was > 100 µM (inactive), the GI50 (MOLT-4) was > 100 µM (inactive) and the GI50 (Malme-3M) was > 100 µM (inactive). For the same compound, the GI50 (OVCAR-8) was > 100 µM (inactive), the GI50 (DU-145) was > 100 µM (inactive) and the GI50 (786-0) was > 100 µM (inactive). For the same compound, the GI50 (EKVX) was > 100 µM (inactive), the GI50 (IGROV-1) was > 100 µM (inactive) and the GI50 (RPMI-8226) was > 100 µM (inactive). The GI50 (KM12) was > 100 µM (inactive), the GI50 (OVCAR-5) was > 100 µM (inactive) and the GI50 (MCF7) was > 100 µM (inactive). For the same compound, the GI50 (SK-MEL-5) was > 100 µM (inactive), the GI50 (UACC-257) was > 100 µM (inactive) and the GI50 (M14) was > 100 µM (inactive). For the same compound, the GI50 (SR) was 55.8 µM (inactive), the GI50 (NCI-H522) was > 100 µM (inactive) and the GI50 (SF-268) was > 100 µM (inactive). The GI50 (MDA-MB-231) was 1.83 µM (inactive), the GI50 (ACHN) was > 100 µM (inactive) and the GI50 (HCC 2998) was > 100 µM (inactive). The GI50 (NCI/ADR-RES) was > 100 µM (inactive), the GI50 (UACC-62) was > 100 µM (inactive) and the GI50 (SF-295) was > 100 µM (inactive). For the same compound, the GI50 (OVCAR-3) was > 100 µM (inactive), the GI50 (SK-MEL-28) was > 100 µM (inactive) and the GI50 (SNB-19) was > 100 µM (inactive). The GI50 (UO-31) was > 100 µM (inactive), the GI50 (HL-60) was 16.6 µM (inactive) and the GI50 (Hs-578T) was 40.8 µM (inactive). For the same compound, the GI50 (CCRF-CEM) was > 100 µM (inactive), the GI50 (MDA-MB-435) was > 100 µM (inactive) and the GI50 (SW-620) was > 100 µM (inactive). For the same compound, the GI50 (U-251) was > 100 µM (inactive), the GI50 (HCT-116) was 97.7 µM (inactive) and the GI50 (LOX IMVI) was > 100 µM (inactive). The GI50 (NCI-H23) was 45.8 µM (inactive), the GI50 (OVCAR-4) was > 100 µM (inactive) and the GI50 (TK-10) was > 100 µM (inactive). The GI50 (NCI-H460) was > 100 µM (inactive), the GI50 (NCI-H226) was 71.8 µM (inactive) and the GI50 (RXF 393) was > 100 µM (inactive). For the same compound, the GI50 (HOP-92) was 23.2 µM (inactive), the GI50 (MDA-N) was > 100 µM (inactive) and the GI50 (COLO 205) was > 100 µM (inactive). For the same compound, the GI50 (HCT-15) was over 100 µM, the GI50 (HT-29) was 88.5 µM (inactive) and the GI50 (SK-OV-3) was > 100 µM (inactive). The GI50 (SN12C) was > 100 µM (inactive), the GI50 (HOP-62) was 10.8 µM (inactive) and the GI50 (SNB-75) was 1.48 µM (inactive). The GI50 (PC-3) was > 100 µM (inactive), the GI50 (K562) was 27.7 µM (inactive) and the GI50 (A549) was > 100 µM (inactive). For the same compound, the GI50 (SK-MEL-2) was 79.4 µM (inactive).
